# Measurements as given in ChEMBL document CHEMBL1649078, “Novel antiviral C5-substituted pyrimidine acyclic nucleoside phosphonates selected as human thymidylate kinase substrates” (J Med Chem, 2011).
# Active and inactive are the calls of the source. No rule for the calls is given here.
# What was measured:
# [1] = organism: Homo sapiens; test: Activity at human recombinant UCK by Michaelis-Menten equation analysis
# [2] = organism: Homo sapiens; test: Displacement of MABA-CDP from human recombinant UCK by fluorescence competition assay
# [3] = test system: Human alphaherpesvirus 2; test: Antiviral activity against HSV2 G infected in human HEL cells assessed as reduction of virus-induced cytopathogenicity after 7 days; format: functional, organism-based; settings: Human alphaherpesvirus 2, strain G, 168 h
# [4] = test system: Human alphaherpesvirus 1; test: Antiviral activity against HSV1 KOS infected in human HEL cells assessed as reduction of virus-induced cytopathogenicity after 7 days; format: functional, organism-based; settings: Human alphaherpesvirus 1, KOS, 168 h
# [5] = test system: Human alphaherpesvirus 1; test: Antiviral activity against acyclovir-resistant thymidine kinase deficient HSV1 KOS infected in human HEL cells assessed as reduction of virus-induced cytopathogenicity after 7 days; format: functional, organism-based; settings: Human alphaherpesvirus 1, KOS, 168 h
# [6] = Cytotoxicity against human HEL cells after 3 days; format: cell-based
# [7] = test system: Human betaherpesvirus 5; test: Antiviral activity against HCMV AD169/Davis infected in human HEL cells assessed as reduction of virus-induced cytopathogenicity after 7 days; format: functional, organism-based; settings: Human betaherpesvirus 5, AD169/Davis, 168 h
# [8] = test system: Human alphaherpesvirus 3; test: Antiviral activity against thymidine kinase-deficient VZV 07/1 infected in human HEL cells assessed as reduction of virus-induced cytopathogenicity after 5 days; format: functional, organism-based; settings: Human alphaherpesvirus 3, 07/1, HEL, 120 h
# [9] = test system: Human alphaherpesvirus 3; test: Antiviral activity against VZV OKA expressing thymidine kinase infected in human HEL cells assessed as reduction of virus-induced cytopathogenicity after 5 days; format: functional, organism-based; settings: Human alphaherpesvirus 3, OKA, 120 h
SMILES,Activity [1],Activity [2],other results
O=c1[nH]c(=O)n(C/C=C/P(=O)(O)O)cc1Cl,inactive,inactive,
CCOP(=O)(/C=C/Cn1cc(Br)c(=O)[nH]c1=O)OCC,inactive,inactive,
CCOP(=O)(CC/C=C/Cn1cc(C)c(=O)n(C(=O)c2ccccc2)c1=O)OCC,inactive,inactive,
O=c1[nH]c(=O)n(C/C=C/P(=O)(O)O)cc1Br,inactive,inactive,
COP(=O)(C/C=C\Cn1cc(C)c(=O)[nH]c1=O)OC,inactive,inactive,
O=c1[nH]c(=O)n(C/C=C/CCP(=O)(O)O)cc1F,inactive,inactive,
CCOP(=O)(/C=C/Cn1cc(F)c(=O)[nH]c1=O)OCC,inactive,inactive,
O=c1ccn(C/C=C/CP(=O)(O)O)c(=O)[nH]1,inactive,inactive,
CCOP(=O)(CC/C=C/Cn1ccc(=O)[nH]c1=O)OCC,inactive,inactive,
COP(=O)(C/C=C\Cn1cc(Br)c(=O)n(C(=O)c2ccccc2)c1=O)OC,inactive,inactive,
CCOP(=O)(CC/C=C/Cn1cc(Br)c(=O)[nH]c1=O)OCC,inactive,inactive,
COP(=O)(C/C=C/Cn1ccc(=O)[nH]c1=O)OC,inactive,inactive,
Nc1nc2c(ncn2COC(CO)CO)c(=O)[nH]1 [GANCICLOVIR],,,EC50 [3]: 0.05 µM; EC50 [4]: 0.08 µM; EC50 [5]: 3 µM; CC50 at 72 h [6]: 164 µM; MCC at 72 h [6]: > 100 µM; EC50 [7]: 5.2 µM
CCOP(=O)(/C=C/Cn1ccc(=O)[nH]c1=O)OCC,inactive,inactive,
O=c1[nH]c(=O)n([C@H]2C[C@H](O)[C@@H](CO)O2)cc1/C=C/Br [BRIVUDINE],,,EC50 [3]: 30 µM; EC50 [8]: > 100 µM; EC50 [9]: 0.012 µM; CC50 at 72 h [6]: > 250 µM; MCC at 72 h [6]: > 250 µM; EC50 [7]: > 250 µM
COP(=O)(C/C=C\Cn1cc(F)c(=O)n(C(=O)c2ccccc2)c1=O)OC,inactive,inactive,
COP(=O)(C/C=C/Cn1cc(Br)c(=O)n(C(=O)c2ccccc2)c1=O)OC,inactive,inactive,
Cc1cn(C/C=C\CP(=O)(OCOC(=O)C(C)(C)C)OCOC(=O)C(C)(C)C)c(=O)[nH]c1=O,inactive,inactive,EC50 [3]: > 40 µM; EC50 [4]: > 40 µM; EC50 [8]: > 40 µM; EC50 [5]: > 40 µM; EC50 [9]: > 40 µM; CC50 at 72 h [6]: 35 µM; MCC at 72 h [6]: ≥ 200 µM; EC50 [7]: > 200 µM
Cc1cn(C/C=C/CCP(=O)(O)O)c(=O)[nH]c1=O,inactive,inactive,
O=c1[nH]c(=O)n(C/C=C/CCP(=O)(O)O)cc1Br,inactive,inactive,
CCOP(=O)(CC/C=C/Cn1ccc(=O)n(C(=O)c2ccccc2)c1=O)OCC,inactive,inactive,
O=c1[nH]c(=O)n(C/C=C/P(=O)(O)O)cc1F,inactive,inactive,
O=c1ccn(C/C=C/CCP(=O)(O)O)c(=O)[nH]1,inactive,inactive,
COP(=O)(C/C=C/Cn1cc(C)c(=O)n(C(=O)c2ccccc2)c1=O)OC,inactive,inactive,
COP(=O)(C/C=C\Cn1cc(Cl)c(=O)[nH]c1=O)OC,inactive,inactive,
COP(=O)(C/C=C\Cn1ccc(=O)[nH]c1=O)OC,inactive,inactive,

SMILES,Activity [1],Activity [2],other results
COP(=O)(C/C=C/Cn1cc(F)c(=O)n(C(=O)c2ccccc2)c1=O)OC,inactive,inactive,
CCOP(=O)(CC/C=C/Cn1cc(F)c(=O)[nH]c1=O)OCC,inactive,inactive,
COP(=O)(C/C=C\Cn1cc(Cl)c(=O)n(C(=O)c2ccccc2)c1=O)OC,inactive,inactive,
CCOP(=O)(/C=C/Cn1cc(Cl)c(=O)[nH]c1=O)OCC,inactive,inactive,
O=c1[nH]c(=O)n(C/C=C/CCP(=O)(O)O)cc1Cl,inactive,inactive,
COP(=O)(C/C=C/Cn1cc(Cl)c(=O)n(C(=O)c2ccccc2)c1=O)OC,inactive,inactive,
COP(=O)(C/C=C\Cn1cc(Br)c(=O)[nH]c1=O)OC,inactive,inactive,
COP(=O)(C/C=C/Cn1cc(C)c(=O)[nH]c1=O)OC,inactive,inactive,
O=c1ccn(C/C=C/P(=O)(O)O)c(=O)[nH]1,inactive,inactive,
Cc1cn(C/C=C/P(=O)(O)O)c(=O)[nH]c1=O,inactive,inactive,
CCOP(=O)(CC/C=C/Cn1cc(Cl)c(=O)n(C(=O)c2ccccc2)c1=O)OCC,inactive,inactive,
CC(C)(C)C(=O)OCOP(=O)(C/C=C/Cn1cc(Br)c(=O)[nH]c1=O)OCOC(=O)C(C)(C)C,inactive,inactive,EC50 [3]: 16 µM; EC50 [4]: 20 µM; EC50 [8]: 15 µM; EC50 [5]: 19 µM; EC50 [9]: 20 µM; CC50 at 72 h [6]: 34 µM; MCC at 72 h [6]: 200 µM; EC50 [7]: > 40 µM
CCOP(=O)(CC/C=C/Cn1cc(F)c(=O)n(C(=O)c2ccccc2)c1=O)OCC,inactive,inactive,
COP(=O)(C/C=C\Cn1ccc(=O)n(C(=O)c2ccccc2)c1=O)OC,inactive,inactive,
CCOP(=O)(CC/C=C/Cn1cc(Br)c(=O)n(C(=O)c2ccccc2)c1=O)OCC,inactive,inactive,
COP(=O)(C/C=C\Cn1cc(F)c(=O)[nH]c1=O)OC,inactive,inactive,
COP(=O)(C/C=C/Cn1cc(Br)c(=O)[nH]c1=O)OC,inactive,inactive,
COP(=O)(C/C=C/Cn1cc(F)c(=O)[nH]c1=O)OC,inactive,inactive,
CCOP(=O)(CC/C=C/Cn1cc(C)c(=O)[nH]c1=O)OCC,inactive,inactive,
O=c1[nH]c(=O)n(C/C=C/CP(=O)(O)O)cc1F,inactive,inactive,
COP(=O)(C/C=C\Cn1cc(C)c(=O)n(C(=O)c2ccccc2)c1=O)OC,inactive,inactive,
CCOP(=O)(CC/C=C/Cn1cc(Cl)c(=O)[nH]c1=O)OCC,inactive,inactive,
COP(=O)(C/C=C/Cn1ccc(=O)n(C(=O)c2ccccc2)c1=O)OC,inactive,inactive,
O=c1[nH]c(=O)n(C/C=C/CP(=O)(O)O)cc1Br,inactive,inactive,
COP(=O)(C/C=C/Cn1cc(Cl)c(=O)[nH]c1=O)OC,inactive,inactive,
CCOP(=O)(/C=C/Cn1cc(C)c(=O)[nH]c1=O)OCC,inactive,inactive,
